EP0465913B1, “Diaminotrifluoromethylpyrimidine derivatives, process for their production and phospholipase A2 inhibitor containing them” (ISHIHARA SANGYO KAISHA, LTD., priority 1990, dated 1992)
Read-outs that look alike come from different tables or passages of the source.

Tests used:
carrageenin edema = assay: Inhibitory activity on carrageenin edema; assay type: in vivo, Wistar male rats; settings: rat, paw swelling volume three hours after carrageenin; for Inhibition rate (%): dose 50 mg/kg orally
Procedure: Using Wistar male rats (body weight: about 100 g), each test group consisted of 5 rats. A test compound was mixed with Tween 80 [polyoxyethylenesorbitan monooleate (manufactured by Nacalai Tesque K.K.)], and distilled water was added thereto to obtain a 2% Tween 80 suspension, or it was dissolved in the form of a salt in water to obtain an aqueous solution. Either the suspension or the aqueous solution was orally administered in an amount of 200 mg/kg, 100 mg/kg, 50 mg/kg or 25 mg/kg. One hour later, 0.1 ml of a 1% λ-carrageenin solution dissolved in a physiological saline was injected subcutaneously to the right hind paw of each rat to cause inflamation. Three hours later, the paw volume was measured by a paw volume measuring device (manufactured by Ugobasiee K.K.). A swelling volume was obtained from the difference from the value before the inflammation. Inhibition rate (%) = (l -(F)/(E)) x 100 [formula] • F: Average swelling volume in the group to which a test compound was administered. • E: Average swelling volume in the control group.

[1] = Acute toxicity, intravenous injection (LD50); assay type: in vivo; settings: mouse, in vivo, ddy male mice, sodium salt, mortality over one week
Procedure: Administration route: Intravenous injection
Using ddy male mice (body weight: 25 - 30 g), each test group consisted of 5 mice. A test compound was dissolved in the form of a sodium salt in a physiological saline or in a 5% glucose aqueous solution, and intravenously injected in an amount of 0.1 ml/10 g body weight. After the injection, the mortality rate was obtained over one week, and the median lethal dose LD50 (mg/kg) was determined.

[2] = target: T1, Porcine pancreatic phospholipase A2 (Sus scrofa, UniProt P00592); assay: Phospholipase A2 inhibitory activity, method B (L-α-dipalmitoylphosphatidylcholine substrate); assay type: biochemical; settings: 1,000 ppm, 37°C for 30 minutes, read-out: % inhibition of PLA2 (1,000 ppm)
T1 construct: purchased Boehringer Mannheim·Yamanouchi K.K. 161454·122416
T1 sequence (P00592 23-146): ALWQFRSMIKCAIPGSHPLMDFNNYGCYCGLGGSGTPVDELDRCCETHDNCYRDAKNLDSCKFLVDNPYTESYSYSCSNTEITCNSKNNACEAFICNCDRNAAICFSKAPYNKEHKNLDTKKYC
Procedure: To a solution prepared by dissolving 9.2 mg of L-α-dipalmitoylphosphatidylcholine (manufactured by Nichiyu Liposome K.K.) in 0.5 ml of chloroform, a solution prepared by dissolving 32 mg of sodium cholate (manufactured by Wako Pure Chemical Industries, Ltd.) in 0.5 ml of methanol, was added, followed by mixing. The solvent of the mixture was removed under a nitrogen stream, and then 2.5 ml of a 250 mM sodium chloride solution [prepared by dissolving sodium chloride in a 100 mM Tris-HCl buffer solution {tris(hydroxymethyl)aminomethane (manufactured by Nacalai Tesque K.K.) was adjusted to pH8.0 with hydrochloric acid}] was added thereto, and the mixture was dissolved under stirring to obtain a substrate.
(§1) Porcine pancreatic phospholipase A2 [(161454·122416) manufactured by Boehringer Mannheim·Yamanouchi K.K.] was used.
To a 96 well microtitration plate, 20 µl of a solution containing calcium chloride, bovine serum alubmin (manufactured by Sigma Chemical, Co.) and a Tris-HCl buffer solution (pH8.0) at concentrations of 25 mM, 4.5 mg/ml and 100 mM, respectively, 5 µl of a solution prepared by dissolving 10 mg of a test compound in 500 µl of diemthylsulfoxide, followed by an addition of 500 µl of a 200 mM Tris-HCl buffer solution, 5 µl of an enzyme solution (10 µg/ml) [prepared by dissolving the enzyme in a bovine serum alubmin solution (prepared by dissolving bovine serum alubmin in a 100 mM Tris-HCl buffer solution at a concentration of 1 mg/ml)] and 20 µl of the substrate, were added and reacted at 37°C for 30 minutes. After termination of the reaction, the released free fatty acid was quantitatively analyzed in accordance with the ACS-ACOD (acyl CoA synthetase-acyl CoA oxidase) method [a kit of NEFA C test wako (manufactured by Wako Pure Chemical Industries, Ltd.) was used]. The quantitative analysis was made by means of Microplate ELISA Reader (Model 2550EIA Reader, manufactured by Bio-Rad Laboratories) at a wavelength of 540 nm. Separately, such experiments as mentioned above, were carried out at various concentrations (1 µg/ml, 0.75 µg/ml, 0.5 µg/ml and 0.25 µg/ml) of phospholipase A2 without a test compound. Then, the concentration of the free fatty acid versus the concentration of phospholipase A2 was plotted.
(§2) From this standard curve, the apparent concentration of phospholipase A2 in the case with a test compound, was read. Then, the percent inhibition of the enzyme was calculated by the following formula. Percent inhibition (%) = (l -(A)/(B)) x 100 [formula] • A: Apparent enzyme concentration when a test compound is added. • B: True enzyme concentration when a test compound is added.

[3] = test system: experimental acute pancreatitis model; assay: Effects against acute pancreatitis (Test Example 8, closed duodenal loop method, lesion scores); assay type: in vivo, Crj-CD male rats; settings: sodium salt, 6 hours after ventrotomy; for inhibition in vivo at 10 mg/kg: Rattus norvegicus, 10 mg/kg single intravenous injection
Procedure: Using Crj-CD male rats, each test group consisted of 3 rats. An experimental acute pancreatitis model was prepared by a closed duodenal loop method under anethesia with halothane (manufactured by Hoechst Japan) and nitrous oxide (manufactured by Sumitomo Seika K.K.) applied by a general inhalation anesthesia machine (Model EM2 and halothane evaporator F-Model). Each compound (subjected to the test in the form of a sodium salt) was continuously intravenously injected into the tail vein in an amount of 0.4 ml/100 g to 0.6 ml/100 g at a rate of 0.05 ml per minute by a pump (Technicon AA II Proportioning Pump III, manufactured by Technicon Instruments Corporation) or rapidly intravenously injected. No injection was made to a control group. Gross pathological examination was conducted upon expiration of 6 hours after the ventrotomy in the case of the group to which the compound was administered. With respect to each of four lesions among pancreatic lesions i.e. petechia, ecchymosis, pancreatic necrosis and abdominal fatty necrosis, the grade and the distribution of lesions were scored with five grades of 0, 0.5, 1, 2 and 3 (severe lesions are 3). The sum of all lesions was designated as scores of pancreatitis lesions, and the sum of the score of petechia and the score of ecchymosis only was designated as scores of hemorrhagic lesions. The pancreatitis inhibition rate (%) and the hemorrhage inhibition rate (%) were obtained by the following formulas, and the results are shown in Table 13. Pancreatitis inhibition rate (%) = (l -(H)/(G)) x 100 [formula] • H: Scores of pancreatitis lesions of the group to which a test compound was administered. • G: Scores of pancreatitis lesions of the control group. Hemorrhage inhibition rate (%) = (l -(J)/(I)) x 100 [formula] • J: Scores of hemorrhagic lesions of the group to which a test compound was administered. • I: Scores of hemorrhagic lesions of the control group.

[4] = test system: increased vascular permeability induced by acetic acid; assay: Inhibitory activity on increased vascular permeability induced by acetic acid (Mouse Whittle method, method C); assay type: in vivo, ddy male mice; settings: amount of leaked dye
Procedure: Using ddy male mice, each test group consisted of 4 or 5 mice. A test compound was mixed with Tween 80 [polyoxyethylenesorbitan monooleate (manufactured by Nacalai Tesque K.K.)], and distilled water was added thereto to obtain a 2% Tween 80 suspension, or it was dissolved in the form of a salt in water to obtain an aqueous solution. A test compound was orally administered, and upon expiration of one hour from the administration, 0.7% acetic acid was intraperitonially injected to each mouse in an amount of 0.1 ml/10 g, and at the same time, 2% brilliant blue was intravenously injected into the tail vein in an amount of 0.1 ml/20 g. Thirty minutes after the injection of brilliant blue, the cervical vertebrae were dislocated under anesthesia by chloroform, and the abdorminal cavity was washed with 5 ml of a physiological saline. The washing solution was subjected to centrifugal separation at 3,000 rpm for 10 minutes, and the amount of the dye in the supernatant was measured at 600 nm absorbance by Microplate ELISA Reader (Model 2550EIA Reader, manufactured by Bio-Rad Laboratories). The inhibition rate of the amount of leaked dye in the group in which a test compound was administered relative to the control group was obtained by the following formula. Inhibition rate (%) = (l -(C)/(D)) x 100 [formula] • C: Amount of leaked dye in the group to which a test compound was administered. • D: Amount of leaked dye in the control group.

[5] = target: T1, Porcine pancreatic phospholipase A2; assay: Phospholipase A2 inhibitory activity, method A (egg yolk lecithin substrate); assay type: biochemical; settings: 1,000 ppm, 37°C for 30 minutes, read-out: % inhibition of PLA2 (1,000 ppm)
Procedure: To 10 mg of egg yolk lecithin (manufactured by Wako Pure Chemical Industries Ltd.), 1 ml of glycerine, 2 ml of a 50 mM Tris-HCl buffer solution (pH7.5) [Tris(hydroxymethyl)aminomethane (manufactured by Nacalai Tesque K.K.) was adjusted to pH7.5 with hydrochloric acid], 0.5 ml of a 150 mM calcium chloride solution (calcium chloride was dissolved in a 50 mM Tris-HCl buffer solution) and 0.5 ml of a 0.05% Triton-X100 (manufactured by Nacalai Tesque K.K.) solution (Triton-X100 was dissolved in a 50 mM Tris-HCl buffer solution), were added and dispersed by an agate mortar or dispersed by an ultrasonic processor (Model W-225, manufactured by Heat System-Ultrasonics, Inc.) for 5 minutes (30W) to obtain a substrate.
as §1
To a 96 well microtitration plate (flat bottom, manufactured by Sumitomo Bakelite Medical Co., Ltd.), 40 µl of the substrate, 5 µl of a solution prepared by dissolving 10 mg of a test compound in 500 µl of dimethylsulfoxide, followed by an addition of 500 µl of a 50 mM Tris-HCl buffer solution, and 5 µl of an enzyme solution of 20 ng/ml (prepared by diluting the enzyme in a 50 mM Tris-HCl buffer solution), were added and reacted at 37°C for 30 minutes. After termination of the reaction, the released free fatty acid was quantitatively analyzed in accordance with the ACS-ACOD (acyl CoA synthetase-acyl CoA oxidase) method [a kit of NEFA C test wako (manufactured by Wako Pure Chemical Industries, Ltd.) was used]. The quantitative analysis was made by means of Microplate ELISA Reader (Model 2550EIA Reader, manufactured by Bio-Rad Laboratories) at a wavelength of 540 nm. Separately, such experiments as mentioned above, were carried out at various concentrations (2 µg/ml, 1 µg/ml and 0.5 µg/ml) of phospholipase A2 without a test compound. Then, the concentration of the free fatty acid versus the concentration of phospholipase A2 was plotted.
as §2

[6] = read-out: Inhibition rate of hemorrhagic lesions (%)
[7] = read-out: Inhibition rate of pancreatitis lesions (%)

## CS(=O)(=O)Nc1ncc(C(F)(F)F)cc1NC(=O)c1ccc(F)c(F)c1 [compound 77]
Carrageenin edema
  Inhibition rate (%): 22%
[1]; iv
  LD50 at 168 h: > 80 mg/kg
[2]
  inhibition at 1000 ppm: 61%
[3]; [6]
  inhibition in vivo at 10 mg/kg: 66%
[3]; [7]
  inhibition in vivo at 10 mg/kg: 70%

## CCCCCCCCS(=O)(=O)Nc1ncc(C(F)(F)F)cc1NC(=O)C(F)(F)C(F)(F)F [compound 23]
[4]; dose 20 mg/kg orally
  Inhibition rate (%): 33%
Carrageenin edema; po, 3 h, dose 100 mg/kg orally, read-out: Inhibition rate (%)
  inhibition in vivo at 100 mg/kg: 30%
[5]
  inhibition at 1000 ppm: 37%

## O=C(Nc1cc(C(F)(F)F)cnc1NS(=O)(=O)c1ccccc1)C(F)(F)F [compound 24]
[5]
  inhibition at 1000 ppm: 66%
[1]; iv
  LD50 at 168 h: > 150 mg/kg
[3]; 11 mg/kg continuous intravenous injection
  Inhibition rate of hemorrhagic lesions (%): 68%

## CCS(=O)(=O)Nc1ncc(C(F)(F)F)cc1NC(=O)C(F)(F)Cl [compound 20]
[4]; dose 20 mg/kg orally
  Inhibition rate (%): 48%
[5]
  inhibition at 1000 ppm: 74%

## CS(=O)(=O)Nc1ncc(C(F)(F)F)cc1NC(=O)C(F)(F)F [compound 12]
[5]
  inhibition at 1000 ppm: 89%
[1]; iv
  LD50 at 168 h: > 150 mg/kg

## CNc1ncc(C(F)(F)F)cc1NC(=O)C(F)(F)C(F)(F)F [compound 41]
[4]; dose 100 mg/kg orally
  Inhibition rate (%): 85%
[5]
  inhibition at 1000 ppm: 89%

## CS(=O)(=O)Nc1ncc(C(F)(F)F)cc1NC(=O)C1CC=CCC1 (centres unmarked) [compound 68]
[1]; iv
  LD50 at 168 h: > 80 mg/kg
[2]
  inhibition at 1000 ppm: 81%
[3]; [6]
  inhibition in vivo at 10 mg/kg: 74%
[3]; [7]
  inhibition in vivo at 10 mg/kg: 77%

## CS(=O)(=O)Nc1ncc(C(F)(F)F)cc1NC(=O)Cc1ccccc1 [compound 60]
Carrageenin edema
  Inhibition rate (%): 27%
[1]; iv
  LD50 at 168 h: > 60 mg/kg
[2]
  inhibition at 1000 ppm: 41%
[3]; [6]
  inhibition in vivo at 10 mg/kg: 92%
[3]; [7]
  inhibition in vivo at 10 mg/kg: 94%

## CC=CC=CC(=O)Nc1cc(C(F)(F)F)cnc1NS(C)(=O)=O [compound 73]
Carrageenin edema
  Inhibition rate (%): 20%
[1]; iv
  LD50 at 168 h: > 80 mg/kg
[2]
  inhibition at 1000 ppm: 53%
[3]; [6]
  inhibition in vivo at 10 mg/kg: 74%
[3]; [7]
  inhibition in vivo at 10 mg/kg: 79%

## CCCOC(=O)Nc1cc(C(F)(F)F)cnc1NS(=O)(=O)C(C)C [compound 106]
Carrageenin edema
  Inhibition rate (%): 19%
[1]
  LD50 at 168 h: > 20 mg/kg
[2]
  inhibition at 1000 ppm: 78%
[3]; [6]
  inhibition in vivo at 10 mg/kg: 96%
[3]; [7]
  inhibition in vivo at 10 mg/kg: 97%

## CS(=O)(=O)Nc1ncc(C(F)(F)F)cc1NC(=O)Cc1cccs1 [compound 61]
[1]; iv
  LD50 at 168 h: > 80 mg/kg
[2]
  inhibition at 1000 ppm: 36%
[3]; [6]
  inhibition in vivo at 10 mg/kg: 79%
[3]; [7]
  inhibition in vivo at 10 mg/kg: 64%

## CC(C)(C)CC(=O)Nc1cc(C(F)(F)F)cnc1NS(C)(=O)=O [compound 7]
[4]; dose 20 mg/kg orally
  Inhibition rate (%): 53%
[2]
  inhibition at 1000 ppm: 50%

## CCCCCCCCC(=O)Nc1cc(C(F)(F)F)cnc1NS(C)(=O)=O [Compound No. 4]
[4]; dose 50 mg/kg orally
  Inhibition rate (%): 43%
[5]
  inhibition at 1000 ppm: 74%

## O=C(Nc1cc(C(F)(F)F)cnc1NS(=O)(=O)C(F)(F)F)C1CCCCC1 [compound 91]
Carrageenin edema
  Inhibition rate (%): 23%
[1]; iv
  LD50 at 168 h: > 80 mg/kg
[2]
  inhibition at 1000 ppm: 81%

## CCOC(=O)NC(=S)Nc1cc(C(F)(F)F)cnc1NS(=O)(=O)CC [compound 21]
[5]
  inhibition at 1000 ppm: 62%
[1]
  LD50 at 168 h: > 75 mg/kg
[3]; 27 mg/kg continuous intravenous injection
  Inhibition rate of hemorrhagic lesions (%): 57%
